From patent US10166218B2, “3-(1H-indol-2-yl)-1H-pyrazolo[3,4-C]pyridines and therapeutic uses thereof” (Samumed, LLC, priority 2015, dated 2019)

Assays:
Type in all cases: cell-based
[1] = test system: Wnt activity (Sp5-Luc reporter, TCF/LEF binding sites) in SW480 colon carcinoma cells; assay: Screening assay for Wnt activity: Sp5-Luc reporter gene assay in stably transduced SW480 cells; conditions: Homo sapiens, overnight incubation
How it was run: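 Luminescence read-out (BrightGlo) from stable Sp5-Luc SW480 cells, normalized to DMSO-only wells. Cells were treated overnight at 37° C in 1% FBS medium across a 1:3, 10-point series starting at 10 μM. EC50 from variable-slope four-parameter regression; percent inhibition at 10 μM given where EC50 >10 μM.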

[2] = test system: primary human fibroblasts derived from IPF patients (LL29 cells) treated with TGF-β1; α-smooth muscle actin (αSMA); assay: Inhibition of the fibrotic process: αSMA staining in TGF-β1 treated primary human fibroblasts from IPF patients (LL29 cells); conditions: Fibroblast, 96 h, TGF-β1 20 ng/mL, 4 days, % cells positive for αSMA
How it was run: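 Potency reflects suppression of TGF-β1-driven αSMA expression in IPF patient fibroblasts over 4 days. Values are EC50s from normalized αSMA-positive cell counts, with % inhibition at 10 μM when EC50 exceeded 10 μM.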

SW480 colon cancer cells = assay: Cell viability assay (CellTiter-Blue) in SW480 colon cancer cells; conditions: Homo sapiens, 96 h, four days, CellTiter-Blue
How it was run: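 Four-day viability readout in SW480 cells: compound at 0.0045–10 μM (1:3 series), DMSO controls in eight replicates, CellTiter-Blue fluorescence after ~3 h. Values are regression-derived EC50s, or percent inhibition at 10 μM when EC50 exceeds 10 μM.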

IL-6 (THP-1 cells) = assay: Inhibition of IL-6 in LPS-stimulated THP-1 human monocyte cells (HTRF); conditions: inhibition of IL-6 in LPS-stimulated THP-1 cells, HTRF, 10-point dose-response starting from 10 μM
How it was run: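 Readout is the 665/620 nm HTRF ratio for secreted IL-6, normalized to DMSO wells, with EC50 from a variable-slope four-parameter fit, or % inhibition at 10 μM when above 10 μM. Cells (1% FBS, 24 h beforehand) got compound for 2 h, then LPS 500 ng/mL for 22 h at 37° C; top dose 10 μM, 0.1% DMSO.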

CN(C)CCNc1cc(F)cc(-c2cccc3[nH]c(-c4n[nH]c5cnc(-c6cncc(NC(=O)C7CC7)c6)cc45)cc23)c1 [Compound 468, N-(5-(3-(4-(3-((2-(Dimethylamino)ethyl)amino)-5-fluorophenyl)-1H-indol-2-yl)-1H-pyrazolo[3,4-c]pyridin-5-yl)pyridin-3-yl)cyclopropanecarboxamide]
EC50 [1]: 1310 nM | EC50 [2]: 3510 nM | EC50 (SW480 colon cancer cells): 1980 nM | EC50 (IL-6 (THP-1 cells)): 866 nM

CC(C)Nc1cncc(-c2cc3c(-c4cc5c(-c6cc(F)cc(CNS(C)(=O)=O)c6)cccc5[nH]4)n[nH]c3cn2)c1 [Compound 488, N-(3-Fluoro-5-(2-(5-(5-(isopropylamino)pyridin-3-yl)-1H-pyrazolo[3,4-c]pyridin-3-yl)-1H-indol-4-yl)benzyl)methanesulfonamide]
EC50 [1]: 157 nM | EC50 [2]: 182 nM | EC50 (SW480 colon cancer cells): 688 nM | EC50 (IL-6 (THP-1 cells)): 526 nM

CS(=O)(=O)NCc1cc(F)cc(-c2cccc3[nH]c(-c4n[nH]c5cnc(-c6cncc(NC(=O)C7CCCCC7)c6)cc45)cc23)c1 [Compound 499, N-(5-(3-(4-(3-Fluoro-5-(methylsulfonamidomethyl)phenyl)-1H-indol-2-yl)-1H-pyrazolo[3,4-c]pyridin-5-yl)pyridin-3-yl)cyclohexanecarboxamide]
EC50 [1]: 1760 nM | EC50 [2]: 4790 nM | EC50 (SW480 colon cancer cells): 4540 nM | EC50 (IL-6 (THP-1 cells)): 1780 nM

CS(=O)(=O)NCc1cc(F)cc(-c2cccc3[nH]c(-c4n[nH]c5cnc(-c6cncc(CNCC7CCCC7)c6)cc45)cc23)c1 [Compound 501, N-(3-(2-(5-(5-(((Cyclopentylmethyl)amino)methyl)pyridin-3-yl)-1H-pyrazolo[3,4-c]pyridin-3-yl)-1H-indol-4-yl)-5-fluorobenzyl)methanesulfonamide]
EC50 [1]: 1340 nM | EC50 [2]: 463 nM | EC50 (SW480 colon cancer cells): 2250 nM | EC50 (IL-6 (THP-1 cells)): 1030 nM

CS(=O)(=O)NCc1cc(F)cc(-c2cccc3[nH]c(-c4n[nH]c5cnc(-c6cncc(CN7CCC(F)(F)C7)c6)cc45)cc23)c1 [Compound 502, N-(3-(2-(5-(5-((3,3-Difluoropyrrolidin-1-yl)methyl)pyridin-3-yl)-1H-pyrazolo[3,4-c]pyridin-3-yl)-1H-indol-4-yl)-5-fluorobenzyl)methanesulfonamide]
EC50 [1]: 253 nM | EC50 [2]: 28 nM | EC50 (SW480 colon cancer cells): 882 nM | EC50 (IL-6 (THP-1 cells)): 481 nM

Fc1cccc(-c2cccc3[nH]c(-c4n[nH]c5cnc(-c6cncc(OCc7ccccc7)c6)cc45)cc23)c1 [Compound 546, 5-(5-(Benzyloxy)pyridin-3-yl)-3-(4-(3-fluorophenyl)-1H-indol-2-yl)-1H-pyrazolo[3,4-c]pyridine]
EC50 [1]: 421 nM | EC50 [2]: 234 nM | EC50 (SW480 colon cancer cells): 365 nM | EC50 (IL-6 (THP-1 cells)): 3990 nM

Cc1ncc(-c2cc3c(-c4cc5ccccc5[nH]4)n[nH]c3cn2)n1C [Compound 681, 5-(1,2-Dimethyl-1H-imidazol-5-yl)-3-(1H-indol-2-yl)-1H-pyrazolo[3,4-c]pyridine]
EC50 [1]: 754 nM | EC50 [2]: 292 nM | EC50 (SW480 colon cancer cells): 1520 nM | EC50 (IL-6 (THP-1 cells)): 954 nM

c1cnc2cc(-c3n[nH]c4cnc(-c5cncc(OC6CCCCC6)c5)cc34)[nH]c2c1 [Compound 1025, 5-(5-(Cyclohexyloxy)pyridin-3-yl)-3-(1H-pyrrolo[3,2-b]pyridin-2-yl)-1H-pyrazolo[3,4-c]pyridine]
EC50 [1]: 171 nM | EC50 [2]: 584 nM | EC50 (SW480 colon cancer cells): 1430 nM | EC50 (IL-6 (THP-1 cells)): 353 nM
